Measured values reported in patent publication US20160184356A1, “ARSENIC-BASED TREATMENT OF CANCERS AND INFLAMMATORY DISORDERS” (STC.UNM, priority 2013, published 2016).
Read-outs that look alike come from different tables or passages of the source.

How the values were obtained:
[1] = molecular target: T1, APTX (C2H2) zinc finger peptide (Homo sapiens, UniProt Q7Z2E3); type: binding
T1 construct: purchased Genemed Synthesis Inc. (San Antonio, Tex.); host or cells: chemical synthesis
T1 sequence (Q7Z2E3 330-356 limits assumed): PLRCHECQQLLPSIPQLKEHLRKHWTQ

[2] = molecular target: T2, PARP-1 (C3H1) zinc finger peptide (Homo sapiens, UniProt P09874, DEL32-46); type: binding
T2 construct: purchased Genemed Synthesis Inc. (San Antonio, Tex.); host or cells: chemical synthesis
T2 sequence (P09874 with tags, fused parts or gaps DEL32-46 limits assumed): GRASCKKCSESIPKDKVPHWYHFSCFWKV

[3] = molecular target: T3, XPA (C4) zinc finger peptide (Homo sapiens, UniProt P23025); type: binding
T3 construct: purchased Genemed Synthesis Inc. (San Antonio, Tex.); host or cells: chemical synthesis
T3 sequence (P23025 101-137 limits assumed): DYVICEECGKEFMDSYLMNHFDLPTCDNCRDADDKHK

[4] = molecular target: T1, APTX (C2H2) zinc finger peptide; type: binding; remark: listed apart in the source
[5] = molecular target: T2, PARP-1 (C3H1) zinc finger peptide; type: binding; remark: listed apart in the source
[6] = molecular target: T3, XPA (C4) zinc finger peptide; type: binding; remark: listed apart in the source
[7] = molecular target: T1, APTX (C2H2) zinc finger peptide; type: binding; remark: listed apart in the source
[8] = molecular target: T2, PARP-1 (C3H1) zinc finger peptide; type: binding; remark: listed apart in the source
[9] = molecular target: T3, XPA (C4) zinc finger peptide; type: binding; remark: listed apart in the source
[10] = molecular target: T1, APTX (C2H2) zinc finger peptide; type: binding; remark: listed apart in the source
[11] = molecular target: T2, PARP-1 (C3H1) zinc finger peptide; type: binding; remark: listed apart in the source
[12] = molecular target: T3, XPA (C4) zinc finger peptide; type: binding; remark: listed apart in the source
APTX protein = molecular target: T4, APTX protein (Homo sapiens, UniProt Q7Z2E3); type: cell-based
T4 construct: APTX, PARP-1, and XPA protein were immunoprecipitated from cell extracts using corresponding antibodies; endogenous in cells; host or cells: HaCaT human keratinocytes
T4 sequence (Q7Z2E3 whole entry): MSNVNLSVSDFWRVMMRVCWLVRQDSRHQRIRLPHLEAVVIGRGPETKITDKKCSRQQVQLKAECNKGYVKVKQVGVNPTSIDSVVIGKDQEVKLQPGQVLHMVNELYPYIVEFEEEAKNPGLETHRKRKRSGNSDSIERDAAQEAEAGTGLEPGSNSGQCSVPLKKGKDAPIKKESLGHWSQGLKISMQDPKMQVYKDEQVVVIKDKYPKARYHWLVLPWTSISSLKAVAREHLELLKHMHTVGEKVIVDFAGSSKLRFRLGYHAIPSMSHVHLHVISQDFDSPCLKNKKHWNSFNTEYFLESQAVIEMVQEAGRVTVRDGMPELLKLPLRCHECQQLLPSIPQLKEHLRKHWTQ

PARP-1 protein = molecular target: T5, PARP-1 protein (Homo sapiens, UniProt P09874); type: cell-based
T5 construct: APTX, PARP-1, and XPA protein were immunoprecipitated from cell extracts using corresponding antibodies; endogenous in cells; host or cells: HaCaT human keratinocytes
T5 sequence (P09874 whole entry): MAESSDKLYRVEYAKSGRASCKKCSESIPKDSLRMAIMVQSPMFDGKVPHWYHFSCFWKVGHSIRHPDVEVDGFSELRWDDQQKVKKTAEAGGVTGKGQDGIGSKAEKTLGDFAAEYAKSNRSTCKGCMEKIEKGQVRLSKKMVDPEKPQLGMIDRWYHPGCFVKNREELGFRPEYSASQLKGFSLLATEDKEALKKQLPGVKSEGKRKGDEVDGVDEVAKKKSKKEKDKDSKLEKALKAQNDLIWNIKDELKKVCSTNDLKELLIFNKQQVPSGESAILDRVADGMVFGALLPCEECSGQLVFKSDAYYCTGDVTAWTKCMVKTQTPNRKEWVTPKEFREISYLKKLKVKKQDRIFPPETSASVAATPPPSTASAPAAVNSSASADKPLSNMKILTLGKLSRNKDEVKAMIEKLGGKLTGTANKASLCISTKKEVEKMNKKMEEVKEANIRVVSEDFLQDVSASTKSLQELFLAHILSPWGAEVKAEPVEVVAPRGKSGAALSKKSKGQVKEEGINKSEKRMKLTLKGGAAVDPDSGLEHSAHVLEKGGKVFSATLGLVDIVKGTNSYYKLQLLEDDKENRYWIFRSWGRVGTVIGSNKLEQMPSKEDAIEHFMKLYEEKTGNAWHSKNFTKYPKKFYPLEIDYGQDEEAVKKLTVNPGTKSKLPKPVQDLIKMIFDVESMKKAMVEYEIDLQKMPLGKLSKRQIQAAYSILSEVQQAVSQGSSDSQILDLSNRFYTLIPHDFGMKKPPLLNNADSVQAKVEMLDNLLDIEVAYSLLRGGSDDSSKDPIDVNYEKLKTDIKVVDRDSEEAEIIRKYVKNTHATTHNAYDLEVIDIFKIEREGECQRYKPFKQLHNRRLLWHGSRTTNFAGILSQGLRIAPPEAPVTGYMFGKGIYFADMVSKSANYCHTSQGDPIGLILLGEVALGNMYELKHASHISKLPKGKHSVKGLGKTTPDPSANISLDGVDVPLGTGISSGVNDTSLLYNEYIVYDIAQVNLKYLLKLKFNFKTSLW

XPA protein = molecular target: T6, XPA protein (Homo sapiens, UniProt P23025); type: cell-based
T6 construct: APTX, PARP-1, and XPA protein were immunoprecipitated from cell extracts using corresponding antibodies; endogenous in cells; host or cells: HaCaT human keratinocytes
T6 sequence (P23025 whole entry): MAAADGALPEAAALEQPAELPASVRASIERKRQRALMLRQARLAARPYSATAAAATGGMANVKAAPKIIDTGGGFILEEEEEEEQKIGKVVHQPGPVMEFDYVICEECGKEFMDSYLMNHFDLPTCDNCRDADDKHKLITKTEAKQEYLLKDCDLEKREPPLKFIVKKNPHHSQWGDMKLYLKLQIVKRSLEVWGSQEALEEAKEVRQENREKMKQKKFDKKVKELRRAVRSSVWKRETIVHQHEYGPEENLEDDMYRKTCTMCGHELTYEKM

PARP [13] = molecular target: T7, PARP (Homo sapiens, UniProt P09874); design: host or cells: urothelial cells; details: 1 µM; cited from earlier work
Target sequence in this assay (P09874 2-1014 limits assumed): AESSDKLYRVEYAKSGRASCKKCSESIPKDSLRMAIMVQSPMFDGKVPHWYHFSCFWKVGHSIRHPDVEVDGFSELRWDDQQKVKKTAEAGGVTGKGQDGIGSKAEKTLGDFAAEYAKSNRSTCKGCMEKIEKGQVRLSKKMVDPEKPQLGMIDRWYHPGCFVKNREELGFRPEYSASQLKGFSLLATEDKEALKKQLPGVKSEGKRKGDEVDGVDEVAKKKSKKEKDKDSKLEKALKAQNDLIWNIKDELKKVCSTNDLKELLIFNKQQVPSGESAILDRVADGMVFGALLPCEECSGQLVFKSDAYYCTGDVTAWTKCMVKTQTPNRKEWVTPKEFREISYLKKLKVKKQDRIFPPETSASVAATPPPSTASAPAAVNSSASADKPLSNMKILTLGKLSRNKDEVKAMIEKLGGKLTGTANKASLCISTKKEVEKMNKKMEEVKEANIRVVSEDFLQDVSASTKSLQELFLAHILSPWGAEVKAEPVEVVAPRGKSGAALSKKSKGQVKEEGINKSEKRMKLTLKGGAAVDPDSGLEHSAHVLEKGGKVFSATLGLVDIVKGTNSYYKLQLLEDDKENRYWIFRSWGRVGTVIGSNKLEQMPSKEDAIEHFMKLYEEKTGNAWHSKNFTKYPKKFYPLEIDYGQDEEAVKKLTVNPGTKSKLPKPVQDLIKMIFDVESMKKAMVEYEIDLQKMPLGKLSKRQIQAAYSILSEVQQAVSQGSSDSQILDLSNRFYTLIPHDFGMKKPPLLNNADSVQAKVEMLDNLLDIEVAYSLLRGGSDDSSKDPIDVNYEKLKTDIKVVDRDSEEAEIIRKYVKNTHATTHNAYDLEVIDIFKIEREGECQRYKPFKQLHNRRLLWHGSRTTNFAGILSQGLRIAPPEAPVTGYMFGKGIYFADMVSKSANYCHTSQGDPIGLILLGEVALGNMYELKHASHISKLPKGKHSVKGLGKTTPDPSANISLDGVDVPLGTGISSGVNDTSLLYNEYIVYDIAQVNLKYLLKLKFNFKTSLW

C3H1 and C4 complexes = details: cited from earlier work
C2H2 complex = details: cited from earlier work
PARP [14] = molecular target: T7, PARP; design: host or cells: human keratinocytes; details: cited from earlier work
Target sequence in this assay (P09874 2-1014): as the sequence (P09874 2-1014 limits assumed) above

| Compound | cobalt binding (absorbance at 660 nm) after incubation with arsenical [1] | cobalt binding (absorbance at 660 nm) after incubation with arsenical [2] | cobalt binding (absorbance at 660 nm) after incubation with arsenical [3] | As—S bond formation (A270) [4] | As—S bond formation (A270) [5] | As—S bond formation (A270) [6] | binding to zinc finger peptide by MALDI-TOF mass spectrometry [7] | binding to zinc finger peptide by MALDI-TOF mass spectrometry [8] | binding to zinc finger peptide by MALDI-TOF mass spectrometry [9] | tertiary structure change (fluorescent intensity at 350 nm) [10] | tertiary structure change (fluorescent intensity at 350 nm) [11] | tertiary structure change (fluorescent intensity at 350 nm) [12] | zinc content in protein (APTX protein) | zinc content in protein (PARP-1 protein) | zinc content in protein (XPA protein) | PARP activity inhibition (PARP [13]) | stability of arsenite bound complex in kinetic studies (C3H1 and C4 complexes) [min] | stability of arsenite bound complex in kinetic studies (C2H2 complex) [min] | PARP activity inhibition (PARP [14]) |
| --- | --- | --- | --- | --- | --- | --- | --- | --- | --- | --- | --- | --- | --- | --- | --- | --- | --- | --- | --- |
| C[As](O)O [MMA(III), monomethylarsonous acid] | concentration-dependent decrease in cobalt binding to all three peptides | concentration-dependent decrease in cobalt binding to all three peptides | concentration-dependent decrease in cobalt binding to all three peptides | A270 values increased for all three types of zinc fingers | A270 values increased for all three types of zinc fingers | A270 values increased for all three types of zinc fingers | bound to APTX zinc finger peptide | also bound to the PARP-1 zinc finger | bound to the XPA zinc finger | decreased in a concentration-dependent manner | alters the tertiary structure of all 3 conformations of zinc fingers | alters the tertiary structure of all 3 conformations of zinc fingers | caused zinc loss from all three configurations of zinc finger proteins | caused zinc loss from all three configurations of zinc finger proteins | caused zinc loss from all three configurations of zinc finger proteins | about 30% |  |  |  |
| sodium arsenite |  | decreased subsequent cobalt binding in a concentration-dependent manner | decreased subsequent cobalt binding in a concentration-dependent manner |  | A270 values increased in a concentration-dependent manner | A270 values increased in a concentration-dependent manner | showed no binding to the APTX zinc finger | bound with PARP-1 and XPA zinc finger peptides | bound with PARP-1 and XPA zinc finger peptides | showed no effect | selectively disrupted the tertiary structure of C3H1 and C4 zinc fingers | selectively disrupted the tertiary structure of C3H1 and C4 zinc fingers | selectively displaced zinc from PARP-1 and XPA proteins | selectively displaced zinc from PARP-1 and XPA proteins | selectively displaced zinc from PARP-1 and XPA proteins |  | 155 | 1.29 | up to 90% |
